Measured values from ChEMBL document CHEMBL4814042, “Design and synthesis of C-aryl angular luotonins via a one-pot aza-Nazarov-Friedlander sequence and their Topo-I inhibition studies along with C-aryl vasicinones and luotonins” (Bioorg Med Chem Lett, 2021).
Activity calls are given as the source filed them. The calls are words filed in the database; no cut-off is given here.

Biological target: T1, DNA topoisomerase 1 (Homo sapiens) (UniProt P11387)
T1 sequence (whole entry): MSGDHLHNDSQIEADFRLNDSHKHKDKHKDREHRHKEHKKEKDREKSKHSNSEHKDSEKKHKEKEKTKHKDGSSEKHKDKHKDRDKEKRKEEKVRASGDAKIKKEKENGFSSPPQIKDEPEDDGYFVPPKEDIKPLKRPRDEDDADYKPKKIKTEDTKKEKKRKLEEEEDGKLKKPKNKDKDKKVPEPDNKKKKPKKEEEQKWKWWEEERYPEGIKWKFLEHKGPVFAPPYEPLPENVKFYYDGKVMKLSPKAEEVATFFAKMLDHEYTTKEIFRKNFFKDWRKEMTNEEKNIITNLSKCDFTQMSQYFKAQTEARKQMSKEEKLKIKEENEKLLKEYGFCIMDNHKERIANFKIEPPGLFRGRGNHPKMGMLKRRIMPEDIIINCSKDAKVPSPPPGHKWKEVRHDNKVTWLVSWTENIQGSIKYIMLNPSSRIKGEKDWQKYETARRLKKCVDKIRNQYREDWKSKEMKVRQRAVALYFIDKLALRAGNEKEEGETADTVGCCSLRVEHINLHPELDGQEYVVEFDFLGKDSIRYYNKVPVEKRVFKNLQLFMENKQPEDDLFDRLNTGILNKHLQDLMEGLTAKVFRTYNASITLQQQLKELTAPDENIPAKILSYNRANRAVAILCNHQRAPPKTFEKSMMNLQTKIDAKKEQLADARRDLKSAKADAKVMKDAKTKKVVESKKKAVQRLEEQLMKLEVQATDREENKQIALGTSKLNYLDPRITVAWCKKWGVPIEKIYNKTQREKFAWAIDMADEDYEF
Assay: Inhibition of human Topoisomerase 1 at 1 to 100 uM
Conditions: dose 1-100 µM

Row | inhibition | SMILES
1 | Active | CSc1ccc([C@@H]2C[C@H](O)c3nc4ccccc4c(=O)n32)cc1

Biological target: T1, DNA topoisomerase 1 (Homo sapiens)
Assay: Inhibition of human Topoisomerase 1 at 0.1 to 100 uM
Conditions: dose 0.1-100 µM

Row | SMILES | inhibition
2 | Cc1ccccc1C1c2cc3ccccc3nc2-c2nc(=O)c3ccccc3n21 (configuration not stated) | Active
3 | O=c1c2ccccc2nc2n1C(c1ccc(Cl)cc1)c1cc3ccccc3nc1-2 (configuration not stated) | Active
4 | COc1cc(C2c3cc4ccccc4nc3-c3nc(=O)c4ccccc4n32)cc(OC)c1OC (configuration not stated) | Active
5 | COc1cc(C2c3cc4ccccc4nc3-c3nc4ccccc4c(=O)n32)cc(OC)c1OC (configuration not stated) | Active
6 | Cc1ccc(C2c3cc4ccccc4nc3-c3nc4ccccc4c(=O)n32)cc1 (configuration not stated) | Active
7 | COc1ccc(C2c3cc4ccccc4nc3-c3nc4ccccc4c(=O)n32)cc1 (configuration not stated) | Active
8 | O=c1c2ccccc2nc2n1C(c1ccc(Br)cc1)c1cc3ccccc3nc1-2 (configuration not stated) | Active
9 | CSc1ccc(C2c3cc4ccccc4nc3-c3nc4ccccc4c(=O)n32)cc1 (configuration not stated) | Active
10 | O=c1c2ccccc2nc2n1C(c1ccc(C(F)(F)F)cc1)c1cc3ccccc3nc1-2 (configuration not stated) | Active
11 | O=c1c2ccccc2nc2n1C(c1ccccc1)c1cc3ccccc3nc1-2 (configuration not stated) | Active
12 | COc1cccc(C2c3cc4ccccc4nc3-c3nc(=O)c4ccccc4n32)c1 (configuration not stated) | Active
13 | O=c1c2ccccc2nc2n1C(c1cccc(Br)c1)c1cc3ccccc3nc1-2 (configuration not stated) | Active
14 | Cc1ccccc1C1c2cc3ccccc3nc2-c2nc3ccccc3c(=O)n21 (configuration not stated) | Active
15 | COc1cccc(C2c3cc4ccccc4nc3-c3nc4ccccc4c(=O)n32)c1 (configuration not stated) | Active

Results, then the compound that gave them:

Row | inhibition | SMILES
16 | Active | CSc1ccc(C2c3cc4ccccc4nc3-c3nc(=O)c4ccccc4n32)cc1 (configuration not stated)
17 | Active | O=c1nc2n(c3ccccc13)C(c1ccccc1)c1cc3ccccc3nc1-2 (configuration not stated)
18 | Active | O=c1nc2n(c3ccccc13)C(c1ccc(Br)cc1)c1cc3ccccc3nc1-2 (configuration not stated)
19 | Active | O=c1nc2n(c3ccccc13)C(c1ccc(Cl)cc1)c1cc3ccccc3nc1-2 (configuration not stated)
20 | Active | COc1ccc(C2c3cc4ccccc4nc3-c3nc(=O)c4ccccc4n32)cc1 (configuration not stated)
21 | Active | O=c1nc2n(c3ccccc13)C(c1ccc(F)cc1)c1cc3ccccc3nc1-2 (configuration not stated)
22 | Active | O=c1nc2n(c3ccccc13)C(c1cccc(Br)c1)c1cc3ccccc3nc1-2 (configuration not stated)
23 | Active | O=c1c2ccccc2nc2n1C(c1ccc(F)cc1)c1cc3ccccc3nc1-2 (configuration not stated)
24 | Active | O=c1nc2n(c3ccccc13)C(c1ccc(C(F)(F)F)cc1)c1cc3ccccc3nc1-2 (configuration not stated)
25 | Active | Cc1ccc(C2c3cc4ccccc4nc3-c3nc(=O)c4ccccc4n32)cc1 (configuration not stated)

Biological target: T1, DNA topoisomerase 1 (Homo sapiens)
Assay: Inhibition of human Topoisomerase 1 at 10 to 100 uM
Conditions: dose 10-100 µM

Row | inhibition | SMILES
26 | Active | O=c1c2ccccc2nc2n1[C@H](c1cccc(Br)c1)C[C@@H]2O

Biological target: T1, DNA topoisomerase 1 (Homo sapiens)
Assay: Inhibition of human Topoisomerase 1 at 100 uM
Conditions: not given

Row | inhibition | SMILES
27 | Active | O=c1c2ccccc2nc2n1[C@H](c1ccc(C(F)(F)F)cc1)C[C@@H]2O
